This is an account of results in patent publication US11365208B2, “Silylated derivatives of resveratrol and the use thereof in neurodegenerative, neurological or inflammatory diseases” (Consejo Superior De Investigaciones Cientificas, priority 2016, dated 2022).

The subject of one assay is zebrafish (Danio rerio). The assay is described as follows: PTZ-induced neurotoxicity model in zebrafish larvae, AChE activity. The assay is classed as in vivo. To be noted: 5 dpf larvae, 10 μM, 1 h pre-treatment then 6 h with 5 mM PTZ. The protocol: The objective of this assay was to analyze the protective effect of various derivatives of resveratrol in a model of neurotoxicity induced by the neurotoxin pentylenetetrazole (PTZ). As an experimental model, the zebrafish (Danio rerio) was used to study the effect of the compounds on acetylcholinesterase activity (AChE) in larvae at 5 days post-fertilization (dpf).
Zebrafish embryos were seeded in 50 ml of dilution water (AD) in a Petri dish and grown to 5 dpf (larval stage). […] Next, the larvae were transferred using a Pasteur pipette to a 24-well microplate, so that each well contained five larvae, making ten replicates per condition. First, the pre-treatment of the 5 dpf larvae was performed. For this, the larvae were incubated at 26±1° C. for 1 hour in a volume of 2 ml of AD for the two control groups (Control and Control+PTZ), of physostigmine (Phys) 20 μM, which is a commercial inhibitor of the enzyme AChE for the Phys group, and of the test compounds at a concentration of 10 μM. A medium exchange was then carried out, and the larvae were incubated with the compounds in combination with 5 mM PTZ for 6 hours at 26±1° C. After this incubation period, all of the larvae were examined, and it was determined that the general state of the larvae was totally normal, without any visible anomaly or anomalous behavior. Finally, the larvae were processed for the analysis of the AChE activity.
In order to determine the AChE levels, larvae processing was carried out according to the established technical study protocol once the experimental period was completed. The larvae were homogenized mechanically, and the samples were centrifuged to obtain the supernatant, which were used to determine the levels of the AChE enzyme as a function of the treatments administered. In addition, the determination of total protein of each experimental group was carried out according to the established technical study protocol. Finally, the AChE levels determined in the control group were taken as a reference measurement and deemed to be 100%.

The next assay has as its system RAW 264.7 macrophages. The assay is described as follows: Inflammation assay: RAW macrophage viability after LPS (MTT). To be noted: 10 μM, LPS 100 ng/ml, 24 h, 1% DMSO. The assay is classed as cell-based. As to the method:
RAW 264.7 macrophages were cultured in P75 with high-glucose DMEM supplemented with penicillin/streptomycin and 10% inactivated fetal bovine serum.
The cell viability assays with RAW macrophages were prepared in 96-well plates by seeding 25,000 cells/well in a volume of 100 μL and incubating the cells for 4 h before the addition of the compounds. The compounds to be tested were dissolved in DMSO and added in three different concentrations (1, 10, and 100 μM) in order to determine their toxicity. The final percentage of DMSO in each well was adjusted to 1%. The cell viability was evaluated 24 h after the addition of the compounds by means of the MTT assay according to the manufacturer's method. Mean values and standard deviations were calculated from at least eight different measurements from several independent experiments.
For the testing of mitigation of damage caused by the addition of LPS, the RAW 264.7 macrophages were cultured according to the procedure described above. […] The cell viability was evaluated 24 h after the addition of the compounds by means of the MTT assay according to the manufacturer's method. Mean values and standard deviations were calculated from at least eight different measurements from several independent experiments.

For another assay, the system named is TNF-α. The assay is described as follows: TNF-α in supernatant of LPS-stimulated RAW macrophages (ELISA). To be noted: 10 μM, 24 h. The assay is classed as cell-based. The protocol:
(§1) To determine the production of cytokines, 5×10^5 RAW 264.7 macrophages were seeded in 24-well plates (0.5 ml per well). The compounds to be tested were then added (10 μM), and the macrophages were either stimulated or not through the addition of LPS (1 μg/ml) to the culture medium. After 24 hours, the levels of IL-6 and TNF-α were measured in the supernatants by ELISA using the capture and biotinylated antibodies from BD PharMingen and PrepoTech following known protocols. The levels of NO in the supernatants at 24 hours were measured indirectly by determining the nitrite concentration in the medium using the Griess reagent according to established protocol. A minimum of two independent experiments and three replicates per experiment were performed for each measured value. The values are expressed as the mean±standard deviation.
(§2) In the previous assay, the levels of various inflammation parameters were measured (TNF-α, NO, and IL-6) by ELISA after treatment with RES or with some of the compounds of the invention (2, 3, 5, 6, 8, and 9).
For orientation: An ELISA detects its analyte on a solid surface through an enzyme-linked reagent.

Assay [1] relates to mouse model of Huntington's disease. The assay is described as follows: 3-nitro-propionic acid (3NP) mouse model of Huntington's disease. The format is in vivo. To be noted: 3NP mice. As to the method:
Compound 15 was investigated as a possible treatment in a mouse model of Huntington's disease. The compound resveratrol (RES) was added as a reference.
In this model, increasing amounts of 3-nitro-propionic acid (3NP) are injected into the mice, causing lesions with a phenotype very similar to that of Huntington's disease, both mechanically and pathologically. Once the damage was caused, the mice were treated with RES, compound 15, or vehicle, and we studied the effect thereof on the mouse on the basis of different parameters. Behavioral studies (rotarod test), an assessment was made of motor capacity (tabulated on a scale of 0 normal to 4 incapable, in several parameters such as general mouse dystonia, ability to flip over, and the ability to explore), weight was monitored, and subsequent measurements were taken such as of the inhibition of pro-inflammatory cytokines in plasma or brain.
The design of the experiment is shown in FIG. 16. #=Behavioral study and rotarod test; ϕ Administration of the compound; W=weeks of age of the mice; D=Day of the experiment.

The test system of the next assay is IL-6. The assay is described as follows: IL-6 in supernatant of LPS-stimulated RAW macrophages (ELISA). The format is cell-based. The note with it: 10 μM, 24 h. The protocol: as §1, §2
The test system of assay [2] is SH-SY5Y neuroblastoma cell line. The assay is described as follows: Neuroprotection assay: SH-SY5Y viability after H2O2 damage (MTT). The format is cell-based. To be noted: 10 μM, H2O2 100 μM, 24 h, 1% DMSO. The protocol:
The SH-SY5Y neuroblastoma cell line was cultured in petri dishes pre-treated with collagen (100 ng/ml) with F12 medium supplemented with penicillin/streptomycin and 10% inactivated fetal bovine serum.
Cell viability assays with neurons were prepared in 96-well plates pre-treated with collagen by seeding 20,000 cells/well in a volume of 100 μL and incubating the cells for 24 h before the addition of the compounds. The compounds to be tested were dissolved in DMSO and added in three different concentrations (1, 10, and 100 μM) in order to determine their toxicity. The final percentage of DMSO in each well was adjusted to 1%. The cell viability was evaluated 24 h after the addition of the compounds by means of the MTT assay according to the manufacturer's method. Mean values and standard deviations were calculated from at least eight different measurements from several independent experiments.
For the neuroprotection assay, the neurons were cultured and seeded in the same manner as for the cell viability assay. […] The cell viability was evaluated 24 h after the addition of the compounds by means of the MTT assay according to the manufacturer's method. Mean values and standard deviations were calculated from at least eight different measurements from several independent experiments. […]

For the next assay, the system named is NO. The assay is described as follows: NO (nitrite, Griess reagent) in supernatant of LPS-stimulated RAW macrophages. The format is cell-based. To be noted: 10 μM, 24 h. As to the method:
as §1, §2
A general note: The Griess reaction detects nitrite, a stable product of nitric oxide.

Assay [3] deals with mouse model of multiple sclerosis. The assay is described as follows: Experimental allergic encephalomyelitis (EAE) mouse model of multiple sclerosis. The format is in vivo. The note with it: for motor capacity: preventive regimen, 20 mg/kg intraperitoneal twice a week for 3 weeks from day 5 after induction; for clinical classification of the motor capacity: 20 mg/kg intraperitoneal twice a week for 2 weeks from day 12 after induction, especially days 20-30. The protocol: Compound 15 was investigated as a possible treatment in a mouse model of multiple sclerosis. The compound resveratrol (RES) was added as a reference. An experimental allergic encephalomyelitis model, EAE, was used as an animal model of multiple sclerosis.
In this model, mice are injected with myelin oligodendrocyte glycoprotein (MOG, MOG35-55, is the 21 amino acid peptide corresponding to the sequence from positions 35 to 55 of the MOG glycoprotein) and virus pertussis (pertussis toxin, PTX) in order to induce the disease. Two days after induction, a new dose of the virus was given again, because some mice were not developing symptoms of EAE. Once the damage was caused, the mice were treated with RES, compound 15, or vehicle, and we studied the effect thereof on the mouse on the basis of different motor parameters on a scale from 0 normal to 4 incapable.
• Vehicle without tween-80 emulsifier (control EAE without T) • Vehicle with tween-80 emulsifier (EAE-T control) • Preventive RES (without tween-80 emulsifier) (RES-PREV) • Therapeutic RES (no tween-80 emulsifier) (RES-TERAP) • Preventive compound 15 (with tween-80 emulsifier) (compound 15-PREV) • Therapeutic compound 15 (with tween-80 emulsifier) (compound 15-TERAP)
The (intraperitoneal) administration of the compounds (resveratrol, compound 15, and vehicle, with or without tween-80) is started 5 days after induction. 250 μL of the compound in question (20 mg/kg) were injected twice a week and the treatment was maintained for 3 weeks. The treatment was then stopped, but the state of the mice was monitored for another 3 weeks (47 days total).
The (intraperitoneal) administration of the compounds (resveratrol, compound 15, and vehicle, with or without tween-80) is started 12 days after induction. 250 μL of the compound in question (20 mg/kg) were injected twice a week and the treatment was maintained for 2 weeks. The treatment was then stopped, but the state of the mice was monitored for another 3 weeks (47 days total).

Each structure is given as a SMILES string.

Turning to `CCCC(=O)Oc1ccc(/C=C/c2cc(O[Si](CC)(CC)CC)cc(O[Si](CC)(CC)CC)c2)cc1` [compound 17, 3,5-O-triethylsilyl-4′-butanoyl resveratrol], the “AChE activity relative to control (neuroprotective effect)” value (“AChE activity relative to control” below) in the assay on zebrafish (Danio rerio) is “lower neuroprotective effect similar to that observed for resveratrol”.

As to `Oc1ccc(C=Cc2cc(O)cc(O)c2)cc1` [RES, resveratrol], the cell viability recovered entry in the assay with RAW 264.7 macrophages is recorded as “up to 62%”; in assay [2], “up to 50%”. Also, the “TNF-α level in culture medium” value in the assay with TNF-α was “significantly decreases”. In addition, the “AChE activity relative to control” value in the assay with zebrafish (Danio rerio) is “lower neuroprotective effect”. Also, the “improvement of the phenotype caused by 3NP, compared with compound 15” value in assay [1] is “differences between compound 15 and RES are not great”. Besides, the “IL-6 level in culture medium” value in the assay with IL-6 is reported as “significantly decreases”. For the same compound, in the assay on NO, the “NO level in culture medium” value is “significantly decreases”. For the same compound, the motor capacity result in assay [3] is on record as “does reduce damage on a motor level”. Moreover, the “clinical classification of the motor capacity” value in assay [3] (therapeutic regimen) is reported as “do not appear to improve”.

As to `CCCCCCCC(=O)OCC1OC(Oc2cc(/C=C/c3ccc(O[Si](C(C)C)(C(C)C)C(C)C)cc3)cc(O[Si](C(C)C)(C(C)C)C(C)C)c2)C(O)C(O)C1O` (stereo not drawn) [compound 14, 3,4′-O-ditriisopropylsilyl-5-(-6-octanoyl)glucosyl resveratrol], the “AChE activity relative to control” value in the assay on zebrafish (Danio rerio) is reported as “lower neuroprotective effect similar to that observed for resveratrol”.

Take `CC[Si](CC)(CC)Oc1cc(/C=C/c2ccc(O)cc2)cc(O[Si](CC)(CC)CC)c1` [compound 9]: the “AChE activity relative to control” value in the assay on zebrafish (Danio rerio) is recorded as “significantly prevent the decrease in AChE activity induced by PTZ”.

`CCCCCCCC(=O)OCC1OC(Oc2ccc(/C=C/c3cc(O[Si](C(C)C)(C(C)C)C(C)C)cc(O[Si](C(C)C)(C(C)C)C(C)C)c3)cc2)C(O)C(O)C1O` (stereo not drawn) [compound 15, 3,5-O-ditriisopropylsilyl-4′-(6-octanoyl)glucosyl resveratrol]: the “AChE activity relative to control” value in the assay with zebrafish (Danio rerio) was “significantly prevent the decrease in AChE activity induced by PTZ”. Also, in assay [1], the “severity of the motor lesions (motor capacity)” value is “decreasing the severity of the motor lesions” and the “weight of the animals” value is given as “increasing the weight of the animals”. The “levels of pro-inflammatory cytokines such as IL-6” value in assay [1] (plasma) is “decreasing”. The “effectiveness relative to RES on a molar dose basis” value in assay [3] (20 mg/kg each, dose of RES in μmol/kg about 3× dose of compound 15) is reported as “much more effective”. Besides, in assay [3], the motor capacity entry is “does not have a great effect on motor capacity”. Besides, the “clinical classification of the motor capacity” value in assay [3] (therapeutic regimen) is “improves the clinical classification of the motor capacity of the mice compared to the control”. Further, in assay [3] (therapeutic regimen, days 30-47, administration interrupted), the “clinical classification of the motor capacity after end of administration” value was “improvement in the clinical classification was maintained”.

With `CC[Si](CC)(CC)Oc1ccc(/C=C/c2cc(O)cc(O[Si](CC)(CC)CC)c2)cc1` [compound 8], in the assay with zebrafish (Danio rerio), the “AChE activity relative to control” value is “lower neuroprotective effect similar to that observed for resveratrol”.
